The experiment has as its target T1, recombinant human Estrogen Receptor alpha ligand binding domain, residues 307-554 (ER alpha-LBD (GST)) (Homo sapiens, UniProt P03372).
T1 construct: made in house
T1 sequence (P03372 307-554): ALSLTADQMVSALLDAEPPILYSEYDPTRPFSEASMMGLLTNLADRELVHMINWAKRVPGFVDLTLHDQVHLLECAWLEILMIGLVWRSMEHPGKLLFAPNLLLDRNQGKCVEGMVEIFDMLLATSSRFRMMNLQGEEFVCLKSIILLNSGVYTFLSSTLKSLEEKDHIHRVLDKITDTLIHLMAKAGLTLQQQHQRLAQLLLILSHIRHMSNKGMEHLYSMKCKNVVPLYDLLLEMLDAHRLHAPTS
Kind of experiment: ERα binding assay (LanthaScreen TR-FRET competition). As to conditions: TR-FRET competition with Fluormone ES2 tracer, 4 hours at room temperature; single experiment or average of two or more. On the technique in general: TR-FRET usually uses a lanthanide donor and a delayed reading to cut background.

In general, IC50 refers to the concentration that inhibits the measured activity by half.

For `Cc1ncsc1-c1ccc([C@H](C)NC(=O)[C@@H]2C[C@@H](O)CN2C(=O)[C@@H](NC(=O)COCCOCCOCCOc2cc(F)c([C@@H]3c4[nH]c5ccccc5c4C[C@@H](C)N3CC(C)(C)F)c(F)c2)C(C)(C)C)cc1` [Example 3, (2S,4R)-1-((S)-2-(tert-Butyl)-14-(3,5-difluoro-4-((1R,3R)-2-(2-fluoro-2-methylpropyl)-3-methyl-2,3,4,9-tetrahydro-1H-pyrido[3,4-b]indol-1-yl)phenoxy)-4-oxo-6,9,12-trioxa-3-azatetradecanoyl)-4-hydroxy-N—((S)-1-(4-(4-methylthiazol-5-yl)phenyl)ethyl)pyrrolidine-2-carboxamide], the IC50 stood at 0.8 nM.
For `Cc1ncsc1-c1ccc(CNC(=O)[C@@H]2C[C@@H](O)CN2C(=O)[C@@H](NC(=O)COCc2ccc(OCCOc3cc(F)c([C@@H]4c5[nH]c6ccccc6c5C[C@@H](C)N4CC(C)(C)F)c(F)c3)cc2)C(C)(C)C)cc1` [Example 4, (2S,4R)-1-((S)-2-(2-((4-(2-(3,5-Difluoro-4-((1R,3R)-2-(2-fluoro-2-methylpropyl)-3-methyl-2,3,4,9-tetrahydro-1H-pyrido[3,4-b]indol-1-yl)phenoxy)ethoxy)benzyl)oxy)acetamido)-3,3-dimethylbutanoyl)-4-hydroxy-N-(4-(4-methylthiazol-5-yl)benzyl)pyrrolidine-2-carboxamide], the half-inhibitory concentration (IC50) is 0.8 nM.
Consider `Cc1ncsc1-c1ccc(CNC(=O)[C@@H]2C[C@@H](O)CN2C(=O)[C@@H](NC(=O)COCCOCCOCCOCC(=O)Nc2ccc([C@@H]3c4[nH]c5ccccc5c4C[C@@H](C)N3CC(C)(C)F)cc2)C(C)(C)C)cc1` [Example 55, N^1-(4-((1R,3R)-2-(2-fluoro-2-methylpropyl)-3-methyl-2,3,4,9-tetrahydro-1H-pyrido[3,4-b]indol-1-yl)phenyl)-N^14—((S)-1-((2S,4R)-4-hydroxy-2-((4-(4-methylthiazol-5-yl)benzyl)carbamoyl)pyrrolidin-1-yl)-3,3-dimethyl-1-oxobutan-2-yl)-3,6,9,12-tetraoxatetradecanediamide, Trifluoroacetic Acid], for which the 50% inhibitory concentration (IC50) is 12 nM.
Under `Cc1ncsc1-c1ccc(CNC(=O)[C@@H]2C[C@@H](O)CN2C(=O)[C@@H](NC(=O)COCCOCCOCCOCCOCC(=O)Nc2ccc([C@@H]3c4[nH]c5ccccc5c4C[C@@H](C)N3CC(C)(C)F)cc2)C(C)(C)C)cc1` [Example 56, N^1-(4-((1R,3R)-2-(2-fluoro-2-methylpropyl)-3-methyl-2,3,4,9-tetrahydro-1H-pyrido[3,4-b]indol-1-yl)phenyl)-N^17—((S)-1-((2S,4R)-4-hydroxy-2-((4-(4-methylthiazol-5-yl)benzyl)carbamoyl)pyrrolidin-1-yl)-3,3-dimethyl-1-oxobutan-2-yl)-3,6,9,12,15-pentaoxaheptadecanediamide, Trifluoroacetic Acid] stands 20 nM; under `Cc1ncsc1-c1ccc(CNC(=O)[C@@H]2C[C@@H](O)CN2C(=O)[C@@H](NC(=O)COCCOCCOCC(=O)Nc2ccc([C@@H]3c4[nH]c5ccccc5c4C[C@@H](C)N3CC(C)(C)F)cc2)C(C)(C)C)cc1` [Example 57, (2S,4R)-1-((S)-2-(tert-butyl)-14-((4-((1R,3R)-2-(2-fluoro-2-methylpropyl)-3-methyl-2,3,4,9-tetrahydro-1H-pyrido[3,4-b]indol-1-yl)phenyl)amino)-4,14-dioxo-6,9,12-trioxa-3-azatetradecanoyl)-4-hydroxy-N-(4-(4-methylthiazol-5-yl)benzyl)pyrrolidine-2-carboxamide, Trifluoroacetic Acid], 8.8 nM; under `Cc1ncsc1-c1ccc(CNC(=O)[C@@H]2C[C@@H](O)CN2C(=O)[C@@H](NC(=O)COCCOCCNC(=O)/C=C/c2cc(F)c([C@@H]3c4[nH]c5ccccc5c4C[C@@H](C)N3CC(C)(C)F)c(F)c2)C(C)(C)C)cc1` [Example 58, (2S,4R)-1-((S,E)-2-(tert-butyl)-15-(3,5-difluoro-4-((1R,3R)-2-(2-fluoro-2-methylpropyl)-3-methyl-2,3,4,9-tetrahydro-1H-pyrido[3,4-b]indol-1-yl)phenyl)-4,13-dioxo-6,9-dioxa-3,124-diazapentadec-4-enoyl)-4-hydroxy-N-(4-(4-methylthiazol-5-yl)benzyl)pyrrolidine-2-carboxamide, Trifluoroacetic Acid], 0.9 nM.
Under `Cc1ncsc1-c1ccc(CNC(=O)[C@@H]2C[C@@H](O)CN2C(=O)[C@@H](NC(=O)CCCCNC(=O)/C=C/c2cc(F)c([C@@H]3c4[nH]c5ccccc5c4C[C@@H](C)N3CC(C)(C)F)c(F)c2)C(C)(C)C)cc1` [Example 60, (2S,4R)-1-((S)-2-(5-((E)-3-(3,5-difluoro-4-((1R,3R)-2-(2-fluoro-2-methylpropyl)-3-methyl-2,3,4,9-tetrahydro-1H-pyrido[3,4-b]indol-1-yl)phenyl)acrylamido)pentanamido)-3,3-dimethylbutanoyl)-4-hydroxy-N-(4-(4-methylthiazol-5-yl)benzyl)pyrrolidine-2-carboxamide, Trifluoroacetic Acid] stands 0.7 nM; under `Cc1ncsc1-c1ccc(CNC(=O)[C@@H]2C[C@@H](O)CN2C(=O)[C@@H](NC(=O)COc2ccc(OCCNC(=O)/C=C/c3cc(F)c([C@@H]4c5[nH]c6ccccc6c5C[C@@H](C)N4CC(C)(C)F)c(F)c3)cc2)C(C)(C)C)cc1` [Example 61, (2S,4R)-1-((S)-2-(2-(4-(2-((E)-3-(3,5-difluoro-4-((1R,3R)-2-(2-fluoro-2-methylpropyl)-3-methyl-2,3,4,9-tetrahydro-1H-pyrido[3,4-b]indol-1-yl)phenyl)acrylamido)ethoxy)phenoxy)acetamido)-3,3-dimethylbutanoyl)-4-hydroxy-N-(4-(4-methylthiazol-5-yl)benzyl)pyrrolidine-2-carboxamide, Trifluoroacetic Acid], 1 nM; under `Cc1ncsc1-c1ccc(CNC(=O)[C@@H]2C[C@@H](O)CN2C(=O)[C@@H](NC(=O)COCCNC(=O)/C=C/c2cc(F)c([C@@H]3c4[nH]c5ccccc5c4C[C@@H](C)N3CC(C)(C)F)c(F)c2)C(C)(C)C)cc1` [Example 62, (2S,4R)-1-((S)-2-(2-(2-((E)-3-(3,5-difluoro-4-((1R,3R)-2-(2-fluoro-2-methylpropyl)-3-methyl-2,3,4,9-tetrahydro-1H-pyrido[3,4-b]indol-1-yl)phenyl)acrylamido)ethoxy)acetamido)-3,3-dimethylbutanoyl)-4-hydroxy-N-(4-(4-methylthiazol-5-yl)benzyl)pyrrolidine-2-carboxamide, Trifluoroacetic Acid], 0.5 nM.
As to `Cc1ncsc1-c1ccc(CNC(=O)[C@@H]2C[C@@H](O)CN2C(=O)[C@@H](NC(=O)COCCOCCOCCNC(=O)/C=C/c2cc(F)c([C@@H]3c4[nH]c5ccccc5c4C[C@@H](C)N3CC(C)(C)F)c(F)c2)C(C)(C)C)cc1` [Example 63, (2S,4R)-1-((S,E)-2-(tert-butyl)-18-(3,5-difluoro-4-((1R,3R)-2-(2-fluoro-2-methylpropyl)-3-methyl-2,3,4,9-tetrahydro-1H-pyrido[3,4-b]indol-1-yl)phenyl)-4,16-dioxo-6,9,12-trioxa-3,15-diazaoctadec-17-enoyl)-4-hydroxy-N-(4-(4-methylthiazol-5-yl)benzyl)pyrrolidine-2-carboxamide, Trifluoroacetic Acid], the IC50 was 1 nM.
Under `Cc1ncsc1-c1ccc(CNC(=O)[C@@H]2C[C@@H](O)CN2C(=O)[C@@H](NC(=O)c2cnn(CCOCCNC(=O)/C=C/c3cc(F)c([C@@H]4c5[nH]c6ccccc6c5C[C@@H](C)N4CC(C)(C)F)c(F)c3)c2)C(C)(C)C)cc1` [Example 64, 1-(2-(2-((E)-3-(3,5-difluoro-4-((1R,3R)-2-(2-fluoro-2-methylpropyl)-3-methyl-2,3,4,9-tetrahydro-1H-pyrido[3,4-b]indol-1-yl)phenyl)acrylamido)ethoxy)ethyl)-N—((S)-1-((2S,4R)-4-hydroxy-2-((4-(4-methylthiazol-5-yl)benzyl)carbamoyl)pyrrolidin-5-yl)-3,3-dimethyl-1-oxobutan-2-yl)-1H-pyrazole-4-carboxamide, Trifluoroacetic Acid] stands 0.4 nM; under `Cc1ncsc1-c1ccc(CNC(=O)[C@@H]2C[C@@H](O)CN2C(=O)[C@@H](NC(=O)Cc2ccc(OCCOCCNC(=O)/C=C/c3cc(F)c([C@@H]4c5[nH]c6ccccc6c5C[C@@H](C)N4CC(C)(C)F)c(F)c3)cc2)C(C)(C)C)cc1` [Example 66, (2S,4R)-1-((S)-2-(2-(4-(2-(2-((E)-3-(3,5-difluoro-4-((1R,3R)-2-(2-fluoro-2-methylpropyl)-3-methyl-2,3,4,9-tetrahydro-1H-pyrido[3,4-b]indol-1-yl)phenyl)acrylamido)ethoxy)ethoxy)phenyl)acetamido)-3,3-dimethylbutanoyl)-4-hydroxy-N-(4-(4-methylthiazol-5-yl)benzyl)pyrrolidine-2-carboxamide, Trifluoroacetic Acid], 1.2 nM; under `Cc1ncsc1-c1ccc(CNC(=O)[C@@H]2C[C@@H](O)CN2C(=O)[C@@H](NC(=O)c2ccc(N3CCN(CCNC(=O)/C=C/c4cc(F)c([C@@H]5c6[nH]c7ccccc7c6C[C@@H](C)N5CC(C)(C)F)c(F)c4)CC3)cc2)C(C)(C)C)cc1` [Example 67, (2S,4R)-1-((S)-2-(4-(4-(2-((E)-3-(3,5-difluoro-4-((1R,3R)-2-(2-fluoro-2-methylpropyl)-3-methyl-2,3,4,9-tetrahydro-1H-pyrido[3,4-b]indol-1-yl)phenyl)acrylamido)ethyl)piperazin-1-yl)benzamido)-3,3-dimethylbutanoyl)-4-hydroxy-N-(4-(4-methylthiazol-5-yl)benzyl)pyrrolidine-2-carboxamide, Trifluoroacetic Acid], 1.1 nM.
